Key:
[1] = DRUGMATRIX: Atrial Natriuretic Factor (ANF) radioligand binding (ligand: [125I] ANF (rat)); type: cell membranes, Cavia porcellus, Dunkin-Hartley, Adrenal gland, Membrane; settings: Not Active = under 50% inhibition at 10 µM
B2 bradykinin receptor = molecular target: T1, B2 bradykinin receptor (Homo sapiens, UniProt P30411); type: cell membranes, Membrane; settings: chem-1; note: in other assays of this panel Not Active means under 50% inhibition at 10 µM
T1 sequence (P30411 whole entry): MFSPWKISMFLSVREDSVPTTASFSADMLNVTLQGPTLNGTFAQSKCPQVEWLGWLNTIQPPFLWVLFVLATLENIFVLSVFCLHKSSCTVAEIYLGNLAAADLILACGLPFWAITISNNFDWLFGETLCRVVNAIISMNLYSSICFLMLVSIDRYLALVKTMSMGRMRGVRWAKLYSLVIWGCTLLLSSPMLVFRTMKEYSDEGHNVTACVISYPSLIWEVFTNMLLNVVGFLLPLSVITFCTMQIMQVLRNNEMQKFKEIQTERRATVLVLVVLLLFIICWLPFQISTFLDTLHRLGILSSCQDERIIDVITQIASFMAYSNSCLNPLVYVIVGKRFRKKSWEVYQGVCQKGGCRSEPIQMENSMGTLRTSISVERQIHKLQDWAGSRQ

Calcitonin receptor = molecular target: T2, Calcitonin receptor (Homo sapiens, UniProt P30988); type: cell membranes, Membrane; settings: t47d; note: in other assays of this panel Not Active means under 50% inhibition at 10 µM
T2 sequence (P30988 whole entry): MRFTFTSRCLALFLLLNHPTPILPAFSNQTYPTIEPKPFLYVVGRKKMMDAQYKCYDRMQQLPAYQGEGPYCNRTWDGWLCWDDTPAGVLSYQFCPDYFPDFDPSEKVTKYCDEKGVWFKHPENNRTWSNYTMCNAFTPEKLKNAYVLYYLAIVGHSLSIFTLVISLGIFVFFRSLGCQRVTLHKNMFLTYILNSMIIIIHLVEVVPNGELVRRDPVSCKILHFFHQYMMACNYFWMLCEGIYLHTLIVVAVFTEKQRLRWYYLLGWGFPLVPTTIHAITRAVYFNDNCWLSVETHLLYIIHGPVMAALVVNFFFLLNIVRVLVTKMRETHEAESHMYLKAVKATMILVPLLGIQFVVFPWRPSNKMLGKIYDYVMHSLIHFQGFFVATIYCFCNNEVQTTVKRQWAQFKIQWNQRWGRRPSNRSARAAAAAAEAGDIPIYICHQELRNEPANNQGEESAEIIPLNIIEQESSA

[2] = DRUGMATRIX: Tumor Necrosis Factor (TNF), Non-Selective radioligand binding (ligand: [125I] TNF-alpha); type: cell membranes, Membrane; settings: u-937; Not Active = under 50% inhibition at 10 µM
[3] = molecular target: Kappa-type opioid receptor (Homo sapiens, UniProt P41145); assay: DRUGMATRIX: Opiate kappa (OP2, KOP) radioligand binding (ligand: [3H] Diprenorphine); type: cell membranes, HEK293, Membrane; settings: Not Active = under 50% inhibition at 10 µM
Sequence of Kappa-type opioid receptor (P41145 whole entry): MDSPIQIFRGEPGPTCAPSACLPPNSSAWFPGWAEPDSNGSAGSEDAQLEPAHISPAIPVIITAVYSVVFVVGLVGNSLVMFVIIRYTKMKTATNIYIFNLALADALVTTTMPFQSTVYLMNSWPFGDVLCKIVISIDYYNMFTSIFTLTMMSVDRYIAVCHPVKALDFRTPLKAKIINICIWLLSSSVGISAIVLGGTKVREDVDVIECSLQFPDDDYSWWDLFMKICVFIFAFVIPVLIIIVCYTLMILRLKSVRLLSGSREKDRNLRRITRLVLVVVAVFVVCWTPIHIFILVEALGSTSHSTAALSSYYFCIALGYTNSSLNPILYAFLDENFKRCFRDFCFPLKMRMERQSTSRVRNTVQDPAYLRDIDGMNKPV

Cathepsin G = molecular target: T3, Cathepsin G (Homo sapiens, UniProt P08311); type: tissue-based; settings: neutrophil;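 note: inhibition of Cathepsin G enzyme activity, tested on an AMC-conjugated peptide substrate; in other assays of this panel Not Active means under 50% inhibition at 10 µM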
T3 sequence (P08311 whole entry): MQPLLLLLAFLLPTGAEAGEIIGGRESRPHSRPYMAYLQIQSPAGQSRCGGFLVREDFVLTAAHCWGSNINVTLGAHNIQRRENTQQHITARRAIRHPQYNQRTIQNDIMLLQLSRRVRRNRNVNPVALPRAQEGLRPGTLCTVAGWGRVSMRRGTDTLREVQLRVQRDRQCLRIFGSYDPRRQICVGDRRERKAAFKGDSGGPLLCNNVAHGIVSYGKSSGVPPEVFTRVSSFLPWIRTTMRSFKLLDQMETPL

[4] = molecular target: T4, Receptor-type tyrosine-protein phosphatase C (Homo sapiens, UniProt P08575); parameters: species or system Escherichia coli;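 note: inhibition of CD45 enzyme activity measured using DiFMUP as substrate; in other assays of this panel Not Active means under 50% inhibition at 10 µM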
T4 sequence (P08575 whole entry): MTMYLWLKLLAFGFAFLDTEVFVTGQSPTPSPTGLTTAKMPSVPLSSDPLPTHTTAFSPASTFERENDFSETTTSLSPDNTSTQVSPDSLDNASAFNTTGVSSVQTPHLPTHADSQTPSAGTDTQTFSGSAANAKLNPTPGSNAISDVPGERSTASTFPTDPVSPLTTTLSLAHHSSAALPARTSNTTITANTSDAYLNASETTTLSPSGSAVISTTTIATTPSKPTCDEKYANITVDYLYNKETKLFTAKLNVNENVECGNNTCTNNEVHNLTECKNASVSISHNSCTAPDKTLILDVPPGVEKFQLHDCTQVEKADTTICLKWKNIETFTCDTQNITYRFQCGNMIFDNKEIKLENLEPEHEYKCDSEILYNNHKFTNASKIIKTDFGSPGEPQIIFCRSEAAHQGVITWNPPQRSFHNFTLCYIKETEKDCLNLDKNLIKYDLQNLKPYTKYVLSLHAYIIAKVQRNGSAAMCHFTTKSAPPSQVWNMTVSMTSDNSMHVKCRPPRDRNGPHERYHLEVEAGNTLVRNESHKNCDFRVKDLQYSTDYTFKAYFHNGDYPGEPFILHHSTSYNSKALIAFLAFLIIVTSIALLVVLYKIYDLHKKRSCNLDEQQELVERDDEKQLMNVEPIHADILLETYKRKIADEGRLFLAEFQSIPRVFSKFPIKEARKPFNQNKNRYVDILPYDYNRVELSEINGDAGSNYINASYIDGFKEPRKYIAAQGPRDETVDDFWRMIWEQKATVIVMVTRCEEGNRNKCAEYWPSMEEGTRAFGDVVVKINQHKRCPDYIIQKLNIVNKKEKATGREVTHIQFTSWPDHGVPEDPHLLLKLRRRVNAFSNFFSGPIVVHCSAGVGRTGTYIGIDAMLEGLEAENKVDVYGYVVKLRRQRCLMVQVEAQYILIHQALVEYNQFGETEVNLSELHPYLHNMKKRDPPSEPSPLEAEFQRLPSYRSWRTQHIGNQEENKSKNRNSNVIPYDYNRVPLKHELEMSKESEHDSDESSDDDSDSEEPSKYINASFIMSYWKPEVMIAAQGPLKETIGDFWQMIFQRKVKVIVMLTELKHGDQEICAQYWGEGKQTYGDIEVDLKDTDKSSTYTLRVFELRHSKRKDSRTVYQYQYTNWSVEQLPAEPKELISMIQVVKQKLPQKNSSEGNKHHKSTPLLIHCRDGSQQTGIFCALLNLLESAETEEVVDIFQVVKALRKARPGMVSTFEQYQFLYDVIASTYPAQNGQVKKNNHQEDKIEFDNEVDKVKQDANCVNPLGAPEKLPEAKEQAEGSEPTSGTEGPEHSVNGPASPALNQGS

Compound	IC50 [1]	Ki [1]	IC50 (B2 bradykinin receptor)	IC50 (Calcitonin receptor)	IC50 [2]	Ki [2]	IC50 ([3]; hek293)	IC50 (Cathepsin G)	IC50 [4]	Ki [3] [µM]	IC50 ([3]; read-out: IC50) [µM]	Ki (B2 bradykinin receptor)	Ki (Calcitonin receptor)	Ki (Cathepsin G)	Ki [4]
CCCNC(C)C(=O)Nc1ccccc1C (stereo not drawn) [PRILOCAINE]	Not Active	Not Active	Not Active	Not Active	Not Active	Not Active	Not Active	Not Active	Not Active						
NS(=O)(=O)c1cc(C2(O)NC(=O)c3ccccc32)ccc1Cl (stereo not drawn) [CHLORTHALIDONE]	Not Active	Not Active	Not Active	Not Active	Not Active	Not Active	Not Active	Not Active	Not Active						
CCN(CC)CCCC(C)Nc1c2ccc(Cl)cc2nc2ccc(OC)cc12 (stereo not drawn) [QUINACRINE]	Not Active	Not Active	Not Active	Not Active	Not Active	Not Active	Not Active	Not Active	Not Active						
CN1CCC(=C2c3ccccc3CC(=O)c3sccc32)CC1 [KETOTIFEN]	Not Active	Not Active	Not Active	Not Active	Not Active	Not Active	Not Active	Not Active	Not Active						
Cc1c(O)cccc1C(=O)N[C@@H](CSc1ccccc1)[C@H](O)CN1C[C@H]2CCCC[C@H]2C[C@H]1C(=O)NC(C)(C)C	Not Active	Not Active	Not Active	Not Active	Not Active	Not Active		Not Active	Not Active	14.4	36				
Cn1c(=O)c2c(ncn2C)n(C)c1=O [CAFFEINE]	Not Active	Not Active	Not Active	Not Active	Not Active	Not Active	Not Active	Not Active	Not Active						
CC(C)NCC(O)c1ccccc1Cl (stereo not drawn) [CLORPRENALINE]	Not Active	Not Active	Not Active	Not Active	Not Active	Not Active	Not Active	Not Active	Not Active						
NC(=O)c1cccnc1 [NIACINAMIDE]	Not Active	Not Active	Not Active	Not Active	Not Active	Not Active	Not Active	Not Active	Not Active						
C[C@]12C=CC(=O)C=C1CC[C@H]1[C@@H]3C[C@@H](O)[C@](O)(C(=O)CO)[C@@]3(C)C[C@H](O)[C@@]12F [TRIAMCINOLONE]	Not Active	Not Active	Not Active	Not Active	Not Active	Not Active	Not Active	Not Active	Not Active						
CC(=O)OCC(=O)[C@@]1(O)CC[C@H]2[C@@H]3CCC4=CC(=O)CC[C@]4(C)[C@@]3(F)[C@@H](O)C[C@@]21C [FLUDROCORTISONE ACETATE]	Not Active	Not Active	Not Active	Not Active	Not Active	Not Active	Not Active	Not Active	Not Active						
CN(C)C(=O)Oc1cccc([N+](C)(C)C)c1.[Br-] [NEOSTIGMINE BROMIDE]	Not Active	Not Active	Not Active	Not Active	Not Active	Not Active		Not Active	Not Active						
C[C@]12CC[C@@H]3c4ccc(O)cc4CC[C@H]3[C@@H]1C[C@@H](O)[C@@H]2O [ESTRIOL]	Not Active	Not Active	Not Active	Not Active	Not Active	Not Active	Not Active	Not Active	Not Active						
CCN(CC)CCNC(=O)c1ccc(N)cc1 [PROCAINAMIDE]	Not Active	Not Active	Not Active	Not Active	Not Active	Not Active	Not Active	Not Active	Not Active						
NNCCc1ccccc1 [PHENELZINE]	Not Active	Not Active	Not Active	Not Active	Not Active	Not Active		Not Active	Not Active						
C[C@@H]1O[C@@H](O[C@H]2C[C@@H](O)[C@]3(CO)[C@H]4[C@H](O)C[C@]5(C)[C@@H](C6=CC(=O)OC6)CC[C@]5(O)[C@@H]4CC[C@]3(O)C2)[C@H](O)[C@H](O)[C@H]1O [OUABAIN]	Not Active	Not Active	Not Active	Not Active	Not Active	Not Active		Not Active	Not Active						
COBALTOUS CHLORIDE	Not Active	Not Active	Not Active	Not Active	Not Active	Not Active		Not Active	Not Active			Not Active	Not Active	Not Active	Not Active
COLISTIN	Not Active	Not Active	Not Active	Not Active	Not Active	Not Active		Not Active	Not Active			Not Active	Not Active	Not Active	Not Active
C[C@]12CC[C@H]3[C@@H](CCC4=CC(=O)CC[C@@H]43)[C@@H]1CC[C@@H]2O [NANDROLONE]	Not Active	Not Active	Not Active	Not Active	Not Active	Not Active		Not Active	Not Active						
C[N+](C)(C)C[C@H](O)CC(=O)[O-] [LEVOCARNITINE]	Not Active	Not Active	Not Active	Not Active	Not Active	Not Active		Not Active	Not Active						
